Test systems include M19-MEL melanoma; EKVX NSCLC; SN12C renal; UACC-257 melanoma; KM20L2 colon; NCI-H23 lung; RPMI-8226 leukemia; HT29 colon; HOP-18 NSCLC; LOX IMVI melanoma; SK-MEL-28 melanoma; OVCAR-4 ovarian; CCRF-CEM leukemia; MOLT-4 leukemia; SF-268 CNS; OVCAR-8 ovarian; IGROV1 ovarian; UACC-62 melanoma; HCT-116 colon; HCC-2998 colon.
Holding throughout (assay): NCI tumour cell line growth inhibition, 48 h

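Tested at 5 concentrations; 48 h exposure; 96-well plates; endpoints linearly interpolated, else capped at highest concentration. TGI: concentration producing complete growth inhibition.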 Some results are limits rather than exact numbers.

Regarding `C[C@H](N)C(=O)N[C@@H]1[C@H]2C(=C(O)C[C@@H](O)[C@@H]2O)C(=O)O[C@@H]1C`, the TGI with M19-MEL melanoma, in the assay with EKVX NSCLC, in the assay with SN12C renal, with UACC-257 melanoma, in the assay with KM20L2 colon and with NCI-H23 lung was more than 100 µM in each case. Also, the TGI in the assay with RPMI-8226 leukemia, in the assay with HT29 colon, in the assay on HOP-18 NSCLC, with LOX IMVI melanoma, in the assay with SK-MEL-28 melanoma and in the assay with OVCAR-4 ovarian was more than 100 µM in each case. Besides, the TGI with CCRF-CEM leukemia, with MOLT-4 leukemia, in the assay with SF-268 CNS, in the assay on OVCAR-8 ovarian, in the assay on IGROV1 ovarian and with UACC-62 melanoma was more than 100 µM in each case. Moreover, the TGI in the assay on HCT-116 colon and with HCC-2998 colon was more than 100 µM each time.

Turning to `COc1ccc(/C(Cl)=C(\C=O)c2ccccc2)cc1OC`, the TGI in the assay with M19-MEL melanoma, in the assay with EKVX NSCLC, with SN12C renal, in the assay on UACC-257 melanoma, with KM20L2 colon and in the assay on NCI-H23 lung was more than 100 µM in each case. Further, the TGI in the assay with HT29 colon, in the assay on HOP-18 NSCLC, in the assay on LOX IMVI melanoma, in the assay on OVCAR-4 ovarian, in the assay with CCRF-CEM leukemia and with MOLT-4 leukemia was more than 100 µM in each case. Further, the TGI with SF-268 CNS, in the assay on OVCAR-8 ovarian, in the assay on IGROV1 ovarian, in the assay on UACC-62 melanoma, in the assay with HCT-116 colon and with HCC-2998 colon was more than 100 µM in each case.

As for `C[C@H](CN1CC(=O)NC(=O)C1)N1CC(=O)NC(=O)C1`, the TGI in the assay with M19-MEL melanoma, in the assay with EKVX NSCLC, with SN12C renal, in the assay on UACC-257 melanoma, with KM20L2 colon and with NCI-H23 lung was more than 100 µM throughout. The TGI in the assay with RPMI-8226 leukemia, in the assay on HT29 colon, in the assay with HOP-18 NSCLC, in the assay on LOX IMVI melanoma, with SK-MEL-28 melanoma and with OVCAR-4 ovarian was more than 100 µM each time. Besides, the TGI with CCRF-CEM leukemia was more than 100 µM; with MOLT-4 leukemia, more than 47.5 µM; with SF-268 CNS, more than 100 µM; in the assay on OVCAR-8 ovarian it was more than 100 µM; in the assay with IGROV1 ovarian, more than 100 µM; in the assay with UACC-62 melanoma, more than 100 µM. For the same molecule, the TGI in the assay on HCT-116 colon and in the assay with HCC-2998 colon was more than 100 µM in each case.

In the case of `CCOC(=O)C1=NN(c2ccc(Cl)cc2)C2=CC(C)=NN(C)C(=S)N21`, the TGI in the assay on EKVX NSCLC is 81.9 µM; in the assay with SN12C renal, more than 100 µM; with UACC-257 melanoma, more than 100 µM; with NCI-H23 lung, more than 100 µM; in the assay with RPMI-8226 leukemia it was more than 100 µM; with HT29 colon, more than 100 µM. For the same molecule, the TGI in the assay on LOX IMVI melanoma, with SK-MEL-28 melanoma, in the assay with OVCAR-4 ovarian, in the assay on CCRF-CEM leukemia, in the assay on MOLT-4 leukemia and in the assay on SF-268 CNS was more than 100 µM in each case. Further, the TGI in the assay on OVCAR-8 ovarian, with IGROV1 ovarian, in the assay with UACC-62 melanoma, in the assay with HCT-116 colon and in the assay on HCC-2998 colon was more than 100 µM throughout.

Consider `O=C1OC(c2ccc(Cl)cc2)(c2ccc(Cl)cc2)c2c1ccc1ccccc21`, for which the TGI in the assay with M19-MEL melanoma, with EKVX NSCLC, with SN12C renal, with UACC-257 melanoma, with KM20L2 colon and in the assay with NCI-H23 lung was more than 100 µM in each case. Besides, the TGI with RPMI-8226 leukemia, with HT29 colon, with HOP-18 NSCLC, in the assay on LOX IMVI melanoma, with SK-MEL-28 melanoma and in the assay on OVCAR-4 ovarian was more than 100 µM in each case. Further, the TGI with CCRF-CEM leukemia, with MOLT-4 leukemia, in the assay on SF-268 CNS, in the assay on OVCAR-8 ovarian, with IGROV1 ovarian and in the assay on UACC-62 melanoma was more than 100 µM in each case. Moreover, the TGI in the assay on HCC-2998 colon is more than 100 µM.

For `N/C(=N\N=C\c1cc2c(cc1Cl)OCO2)NO`, the TGI in the assay on M19-MEL melanoma, with EKVX NSCLC, with SN12C renal, in the assay on UACC-257 melanoma, in the assay on KM20L2 colon and with NCI-H23 lung was more than 100 µM throughout. Besides, the TGI is more than 72.8 µM in the assay on RPMI-8226 leukemia; more than 100 µM with HT29 colon; more than 100 µM in the assay on HOP-18 NSCLC; more than 100 µM in the assay with LOX IMVI melanoma; more than 100 µM in the assay on SK-MEL-28 melanoma; more than 100 µM in the assay on OVCAR-4 ovarian. Besides, the TGI is more than 100 µM with CCRF-CEM leukemia; more than 100 µM in the assay with MOLT-4 leukemia; more than 100 µM in the assay on SF-268 CNS; more than 100 µM in the assay on OVCAR-8 ovarian; more than 100 µM in the assay on IGROV1 ovarian; more than 84.1 µM in the assay on UACC-62 melanoma. Moreover, the TGI with HCT-116 colon was more than 100 µM; in the assay with HCC-2998 colon, 97.8 µM.

For the molecule `Nc1nn(CC(O)CO)c(=O)s1` (centres undefined), the TGI in the assay on M19-MEL melanoma, in the assay with EKVX NSCLC, in the assay with SN12C renal, in the assay with UACC-257 melanoma, in the assay on KM20L2 colon and in the assay with NCI-H23 lung was more than 100 µM throughout. Also, the TGI with RPMI-8226 leukemia is more than 100 µM; in the assay on HT29 colon it was more than 100 µM; in the assay with HOP-18 NSCLC, more than 100 µM; with LOX IMVI melanoma, more than 100 µM; in the assay on SK-MEL-28 melanoma, 9.86 µM; with OVCAR-4 ovarian, more than 100 µM. Besides, the TGI in the assay with CCRF-CEM leukemia, in the assay on MOLT-4 leukemia, with SF-268 CNS, with OVCAR-8 ovarian, with IGROV1 ovarian and in the assay on UACC-62 melanoma was more than 100 µM throughout. For the same molecule, the TGI in the assay on HCT-116 colon and in the assay on HCC-2998 colon was more than 100 µM each time.

The record behind these values is PubChem BioAssay (NCI).
